The source of these data is patent publication US20230255970A1, “COMPOSITIONS AND METHODS FOR TREATING PROLIFERATIVE DISEASES” (The Broad Institute, Inc., priority 2020, published 2023).

The subject of experiment [1] is KP230 cells. The experiment in a line: qRT-PCR of Yap1 and target genes in KP230 cells. It is filed as cell-based, mouse. The source says: YAP1 cell culture and treatments: Eisinger lab: Murine KP230 cells, a Yap1-dependent cancer cell line, were derived from a tumor from the KP mouse model (Kras^G12/D; Trp53^f/fl), as described in Eisinger-Mathason, T. S. K. et al., Proc. Natl. Acad. Sci. U.S.A 112 (2015): E3402-11, which is hereby incorporated by reference in its entirety. STS-109 UPS cells were derived from a human UPS tumor and validated by Rebecca Gladdy, MD (Sinai Health System, Toronto, Ontario, Canada). TC32 cells were a gift from Patrick Grohar, MD, PhD (Children's Hospital of Philadelphia). HT-1080, HCT-116, and HEK293T cells were purchased from ATCC. KP230, HT-1080, and HEK-293T cells were grown in DMEM with 10% FBS, 1% L-glutamine, and 1% penicillin/streptomycin (P/S). […]
YAP1-related qRT-PCR: Total RNA from cultured cells was isolated with the QIAGEN RNeasy mini kit, and cDNA was synthesized with the High-Capacity RNA-to-cDNA kit (Life Technologies). qRT-PCR analysis was performed with TaqMan “best coverage” probes on a ViiA7 instrument. […] Relative expression was calculated using the ddCt method.
In general terms: Real-time PCR tracks product formation cycle by cycle.

The subject of the next experiment is STK3/MST2 overexpression. The experiment in a line: Cell Painting morphological profile matching to STK3/MST2 overexpression. It is filed as cell-based, human. The source says: To profile each exogenously expressed gene (or allele therein), the previously developed image-based profiling assay, called Cell Painting was used (see Bray et al., Nat. Protoc. 2016 September; 11(9): 1757-1774). […] In five replicates in 384-well plate format, U2OS cells (human bone osteosarcoma cells), chosen for their flat morphology and previous validation in the assay, were infected with an arrayed ‘reference’ expression library of 323 open reading frame (ORF) constructs of partially characterized functions, a subset of which have been previously described. […]
Using the morphological signature found for YAP1 and TAZ, data mining was performed seeking compounds that effected the same (or opposite) morphology by computationally matching the morphological signature to a public database of small molecule signatures (see Caicedo et al., Nat. Meth. 2017 September; 14(9), 849-63, doi:10.1038/nMeth.4397, incorporated herein by reference). Specifically, the intersection of features in the two datasets was determined, resulting in 605 features (1399 features in the genetic screen, without any feature selection; and 729 features in the compound screen, obtained using the findCorrelation function with a threshold of 0.90 on the original 1,783 dimensional feature set). […]

Another experiment concerns TAZ. As to conditions: HT29 cells, six hours; cited from earlier work.
Experiment [2] deals with KP230 cells. The experiment in a line: Proliferation assay, KP230 cells. The experiment is classed as cell-based, mouse. As to conditions: 10 μM daily for 72 hours. The source says:
YAP1 cell culture and treatments: Eisinger lab: Murine KP230 cells, a Yap1-dependent cancer cell line, were derived from a tumor from the KP mouse model (Kras^G12/D; Trp53^f/fl), as described in Eisinger-Mathason, T. S. K. et al., Proc. Natl. Acad. Sci. U.S.A 112 (2015): E3402-11, which is hereby incorporated by reference in its entirety. STS-109 UPS cells were derived from a human UPS tumor and validated by Rebecca Gladdy, MD (Sinai Health System, Toronto, Ontario, Canada). TC32 cells were a gift from Patrick Grohar, MD, PhD (Children's Hospital of Philadelphia). HT-1080, HCT-116, and HEK293T cells were purchased from ATCC. KP230, HT-1080, and HEK-293T cells were grown in DMEM with 10% FBS, 1% L-glutamine, and 1% penicillin/streptomycin (P/S). STS-109 cells were cultured in DMEM with 20% FBS, 1% L-glutamine, and 1% P/S. TC32 cells were grown in RPMI with 10% FBS, 1% L-glutamine, and 1% P/S. HCT-116 cells were cultured in McCoy's 5A medium with 10% FBS and 1% P/S. All cells were confirmed to be negative for mycoplasma contamination and were maintained in an incubator at 37C with 5% CO2. For experimental purposes, cells were cultured for up to 20 passages before being discarded, and were grown to approximately 50% confluence to circumvent the effects of high cell density on Yap1 expression and activity. All cell lines in the Eisinger laboratory were treated with 10 μM of each inhibitor or an equivalent volume of DMSO every 24 hours for 3 days, except for STS-109 cells, which were treated daily for 8 days.
NB4A treatment: Cells were treated with 10 μM of each inhibitor or an equivalent volume of DMSO every 24 hours for 3-8 days, and counted with a hemocytometer with trypan blue exclusion daily (KP230, HT-1080, TC32, HCT-116), or every 2 days (STS-109).

The next experiment deals with mouse sarcoma cells. The experiment in a line: qRT-PCR of Yap1/NF-κB target genes in mouse sarcoma cells. The experiment is classed as cell-based. Conditions: normalized to Hprt, Sdha, timecourse. How it is done: Mouse sarcoma cells were treated with 1 μM of compound for 48 h. RNA was isolated and qRT-PCR was performed for known NF-κB targets and proliferation-associated targets (i.e., Ki67, FOXM1). Target genes used to assess NF-κB inhibition specific to the cancer contexts are evaluated. For example, to test the efficacy of these compounds against NF-κB transcriptional activity in […] cells, expression of PHLDA1, IER2, and LITAF is determined. Compounds that alter expression of NF-κB target genes are assessed in proliferation studies using UPS, head and neck, prostate, and breast cancer cell lines previously associated with NF-κB dependence. IC50 studies and Western blot analyses are performed to evaluate total or phosphorylated p65 levels. Small molecules are then assessed to determine their mechanism of action. […] FIGS. 4-6 provide timecourse graphs showing the relative expression normalized to housekeeping genes.

Entries after “also recorded” stand apart in the source; their conditions may differ.

As to `c1ccc(CNc2ncnc3ccccc23)cc1` [BRD-K43796186, N-benzylquinazolin-4-amine], in the experiment with KP230 cells [1], the “transcription of Yap1, its sarcoma target genes (Foxm1, Ccl2, Hbegf, Birc5, Rela) and Amot” value was “did not regulate transcription”. The “Morphological profile correlation with overexpression of STK3/MST2” value in the experiment on STK3/MST2 overexpression was −0.49. In addition, in the experiment with TAZ, the “TAZ mRNA z-score” value is 2.04. For the same compound, the proliferation result in the experiment with KP230 cells [2] was “inhibited the proliferation”. Moreover, in the experiment on mouse sarcoma cells, the Ccl2 expression entry is “significantly decreased” and the Foxm1 expression entry is given as “reduced”. Besides, the Yap1 gene expression result in the experiment with mouse sarcoma cells (listed as NB4A) was “not affected; also recorded: not effected”.
